Source: patent US20210032253A1, “PYRAZOLO[1,5-A][1,3,5]TRIAZINE-2-AMINE DERIVATIVE, PREPARATION METHOD THEREFOR AND MEDICAL USE THEREOF” (JIANGSU HENGRUI MEDICINE CO., LTD., priority 2018, published 2021)

Tests used:
[1] = target: T1, adenosine A2a receptor (A2aR) (Homo sapiens, UniProt P29274); test: Inhibition of adenosine A2a receptor cAMP signaling pathway in CHO-K1/A2aR cells (HTRF cAMP dynamic 2 kit); format: cell-based; conditions: Table 1, 20 nM ethylcarbazole
T1 construct: expressed in transfected cells; host or cells: CHO-K1
T1 sequence (P29274 whole entry): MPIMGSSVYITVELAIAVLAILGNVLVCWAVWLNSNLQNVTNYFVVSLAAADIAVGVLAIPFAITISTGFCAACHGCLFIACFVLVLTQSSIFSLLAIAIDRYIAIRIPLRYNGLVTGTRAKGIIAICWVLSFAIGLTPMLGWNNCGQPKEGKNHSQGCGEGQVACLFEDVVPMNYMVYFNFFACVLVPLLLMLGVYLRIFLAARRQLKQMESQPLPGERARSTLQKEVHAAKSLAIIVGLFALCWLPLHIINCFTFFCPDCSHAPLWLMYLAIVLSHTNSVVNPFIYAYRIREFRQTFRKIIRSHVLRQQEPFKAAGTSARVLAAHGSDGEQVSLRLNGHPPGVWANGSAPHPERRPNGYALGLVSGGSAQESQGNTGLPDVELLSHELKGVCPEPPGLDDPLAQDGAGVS
In short: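 CHO-K1/A2aR cells (10^6 cells/mL) in HBSS with 20 mM HEPES, 0.1% BSA, rolipram and adenosine deaminase, exposed to compound (0.001024–10000 nM) for 30 min at RT. Then agonist "ethylcarbazole" at 20 nM final, 30 min RT. cAMP read by HTRF after 1 h in lysis buffer.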

[2] = target: T2, adenosine A3 receptor (A3R) (Homo sapiens, UniProt P0DMS8); test: Inhibition of adenosine A3 receptor cAMP signaling pathway in CHO-K1/A3R cells (HTRF cAMP dynamic 2 kit); format: cell-based; conditions: Table 3; for IC50: CHO-K1/A3R cells, cAMP, 10 μM forskolin, 5 nM 2Cl-IB-MECA; for IC50 ratio (A3R/A2aR): selectivity A3R over A2aR
T2 construct: expressed in transfected cells; host or cells: CHO-K1
T2 sequence (P0DMS8 1-318): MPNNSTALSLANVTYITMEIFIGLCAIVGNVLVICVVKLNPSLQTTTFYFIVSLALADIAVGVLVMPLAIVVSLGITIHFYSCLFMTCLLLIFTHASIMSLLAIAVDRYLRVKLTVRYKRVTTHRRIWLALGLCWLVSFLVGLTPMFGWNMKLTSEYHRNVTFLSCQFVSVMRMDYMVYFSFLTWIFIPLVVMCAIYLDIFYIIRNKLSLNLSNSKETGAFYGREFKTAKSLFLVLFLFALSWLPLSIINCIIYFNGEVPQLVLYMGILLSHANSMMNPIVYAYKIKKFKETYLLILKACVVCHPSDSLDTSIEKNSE
In short: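 CHO-K1 cells expressing A3R, in HBSS/HEPES/BSA with rolipram and adenosine deaminase, were preincubated 30 min with compound (0.1–100000 nM final). They were then stimulated 30 min with 10 μM forskolin plus 5 nM 2Cl-IB-MECA at room temperature. cAMP read by HTRF and IC50 calculated.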

SMILES	IC50 [1] [nM]	IC50 [2] [nM]	IC50 ratio (A3R/A2aR) [2]
Cc1ccc(-c2nc(N)nc3c(Cc4cccc(CO[C@H]5CCOC5)n4)cnn23)o1 [Example 1, (S)-4-(5-Methylfuran-2-yl)-8-((6-(((tetrahydrofuran-3-yl)oxy)methyl)pyridin-2-yl)methyl)pyrazolo[1,5-a][1,3,5]triazin-2-amine]	0.33	2060	>10^3
Cc1ccc(-c2nc(N)nc3c(Nc4cccc(CO[C@H]5CCOC5)n4)cnn23)o1 [Example 18, (S)-4-(5-Methylfuran-2-yl)-N^8-(6-(((tetrahydrofuran-3-yl)oxy)methyl)pyridin-2-yl)pyrazolo[1,5-a][1,3,5]triazine-2,8-diamine]	0.87	2200	>10^3
Cc1ccc(-c2nc(N)nc3c(Oc4cccc(CO[C@H]5CCOC5)n4)cnn23)o1 [Example 19, (S)-4-(5-Methylfuran-2-yl)-8-((6-(((tetrahydrofuran-3-yl)oxy)methyl)pyridin-2-yl)oxy)pyrazolo[1,5-a][1,3,5]triazin-2-amine]	0.36	4790	>10^3
